The target in this experiment is human mGluR5 receptor (Homo sapiens (Human), UniProt P41594). In words: Calcium influx assay based on fluorescence (mGluR5 PAM activity). Particulars: human mGluR5 receptor-overexpressed HEK293 cell line; L-glutamate EC20; Fluo-4, FLIPR. Put shortly: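 HEK293 cells overexpressing human mGluR5, loaded 1 h with Fluo-4 at 37° C. Compounds (10 μM to 10 nM final, 0.1–0.2% DMSO) added with an EC20 concentration of L-glutamate, and Ca2+ response read by FLIPR at room temperature. Activity scaled as 0% for EC20 glutamate alone and 100% for glutamate maximum.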
human mGluR5 receptor, sequence (P41594 21-1212): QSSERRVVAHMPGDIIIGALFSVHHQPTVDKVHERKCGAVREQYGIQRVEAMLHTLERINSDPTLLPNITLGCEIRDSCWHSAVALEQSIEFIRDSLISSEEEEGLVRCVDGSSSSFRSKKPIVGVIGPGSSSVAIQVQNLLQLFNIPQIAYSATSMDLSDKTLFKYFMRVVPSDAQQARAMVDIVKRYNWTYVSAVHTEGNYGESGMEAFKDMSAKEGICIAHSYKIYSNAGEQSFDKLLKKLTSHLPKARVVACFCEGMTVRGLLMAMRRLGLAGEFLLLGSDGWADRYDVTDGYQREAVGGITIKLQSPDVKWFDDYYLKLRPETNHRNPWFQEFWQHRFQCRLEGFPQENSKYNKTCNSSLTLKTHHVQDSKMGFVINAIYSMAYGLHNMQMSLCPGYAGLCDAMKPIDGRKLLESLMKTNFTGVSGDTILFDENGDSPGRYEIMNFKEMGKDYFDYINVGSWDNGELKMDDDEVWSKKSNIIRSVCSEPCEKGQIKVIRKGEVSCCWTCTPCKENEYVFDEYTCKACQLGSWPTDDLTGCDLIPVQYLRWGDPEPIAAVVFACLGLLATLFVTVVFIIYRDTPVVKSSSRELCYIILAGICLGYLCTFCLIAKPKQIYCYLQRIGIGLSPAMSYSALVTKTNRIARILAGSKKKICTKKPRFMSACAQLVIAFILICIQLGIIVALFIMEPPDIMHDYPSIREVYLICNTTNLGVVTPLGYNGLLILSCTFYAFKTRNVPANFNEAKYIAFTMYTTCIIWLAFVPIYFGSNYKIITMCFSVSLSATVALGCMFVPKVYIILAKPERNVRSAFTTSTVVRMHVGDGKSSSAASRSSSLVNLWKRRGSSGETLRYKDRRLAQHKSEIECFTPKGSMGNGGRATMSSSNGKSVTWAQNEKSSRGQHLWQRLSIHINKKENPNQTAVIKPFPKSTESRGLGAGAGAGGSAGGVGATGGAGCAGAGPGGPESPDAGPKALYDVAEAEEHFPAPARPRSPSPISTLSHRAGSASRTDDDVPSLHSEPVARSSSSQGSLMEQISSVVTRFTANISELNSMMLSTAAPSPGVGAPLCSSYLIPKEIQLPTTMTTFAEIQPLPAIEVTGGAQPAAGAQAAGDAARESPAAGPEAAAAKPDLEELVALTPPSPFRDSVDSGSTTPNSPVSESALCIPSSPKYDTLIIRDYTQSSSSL
`Fc1ccc(-c2cnc3nc(COc4ccnc(Cl)c4)cn3c2)cc1` [Example 172, 2-[(2-chloro-4-pyridyl)oxymethyl]-6-(4-fluorophenyl)imidazo[1,2-a]pyrimidine]: the concentration giving a half-maximal response (EC50) lay within 100 to 500 nM. Turning to `Oc1cc(-c2cnc3nc(COc4ccc(F)cc4)cn3c2)ccc1F` [Example 55, 2-fluoro-5-[2-[(4-fluorophenoxy)methyl]imidazo[1,2-a]pyrimidin-6-yl]phenol], the 50% effective concentration (EC50) was 100 to 500 nM. For the compound `Oc1ccccc1-c1cnc2nc(COc3ccc(F)cc3)cn2c1` [Example 63, 2-[2-[(4-fluorophenoxy)methyl]imidazo[1,2-a]pyrimidin-6-yl]phenol], the EC50 was 100 to 500 nM. With `Cc1cc(F)ccc1-c1cnc2nc(COc3cccc(F)n3)cn2n1` [Example 191], the concentration for a half-maximal effect (EC50) lay within 500 to 1000 nM.

As to `Cc1ccc(N)c(-c2cnc3nc(COc4ccc(F)cc4)cn3c2)c1` [Example 76, 2-[2-[(4-fluorophenoxy)methyl]imidazo[1,2-a]pyrimidin-6-yl]-4-methyl-aniline], the half-maximal effective concentration (EC50) was in the range of 100 to 500 nM. As to `OCc1cc(F)ccc1-c1cnc2nc(COc3ccc(F)cn3)cn2c1` [Example 139, [5-fluoro-2-[2-[(5-fluoro-2-pyridyl)oxymethyl]imidazo[1,2-a]pyrimidin-6-yl]phenyl]methanol], the EC50 fell in the range of 500 to 1000 nM. As for `Cc1cc(F)ccc1-c1cnc2nc(COc3ccccn3)cn2c1` [Example 106, 6-(4-fluoro-2-methylphenyl)-2-(pyridin-2-yloxymethyl)imidazo[1,2-a]pyrimidine], the EC50 fell in the range of 100 to 500 nM. Regarding `Nc1cc(F)ccc1-c1cnc2nc(COc3ccc(F)cc3)cn2c1` [Example 77, 5-fluoro-2-[2-[(4-fluorophenoxy)methyl]imidazo[1,2-a]pyrimidin-6-yl]aniline], the half-maximal effective concentration (EC50) is 100 to 500 nM. As for `Fc1cccc(OCc2cn3cc(-c4ccc(F)cc4F)cnc3n2)c1` [Example 41, 6-(2,4-difluorophenyl)-2-(3-fluorophenoxymethyl)imidazo[1,2-a]pyrimidine], the concentration for a half-maximal effect (EC50) lay in the range of 100 to 500 nM. On to `OCc1cc(F)ccc1-c1cnc2nc(COc3ccccn3)cn2c1` [Example 135, [5-fluoro-2-[2-(2-pyridyloxymethyl)imidazo[1,2-a]pyrimidin-6-yl]phenyl]methanol], for which the concentration for a half-maximal effect (EC50) fell in the range of 100 to 500 nM. As for `COc1cc(-c2cnc3nc(COc4ccc(F)cc4)cn3c2)ccn1` [Example 99, 2-[(4-fluorophenoxy)methyl]-6-(2-methoxy-4-pyridyl)imidazo[1,2-a]pyrimidine], the concentration giving a half-maximal response (EC50) fell in the range of 500 to 1000 nM. As for `Fc1ccc(-c2cnc3nc(COc4ccccn4)cn3n2)c(C(F)(F)F)c1` [Example 186, 2-[4-fluoro-2-(trifluoromethyl)phenyl]-6-(2-pyridyloxymethyl)imidazo[1,2-b][1,2,4]triazine], the 50% effective concentration (EC50) was in the range of 100 to 500 nM. On to `Cc1cc(F)ccc1-c1cnc2nc(COc3ccc(F)cn3)cn2c1` [Example 114, 6-(4-fluoro-2-methyl-phenyl)-2-[(5-fluoro-2-pyridyl)oxymethyl)imidazo[1,2-a]pyrimidine], for which the EC50 is 100 to 500 nM. In the case of `Fc1ccc(-c2cnc3nc(COc4cncc(F)c4)cn3c2)cc1` [Example 171, 6-(4-fluorophenyl)-2-[(5-fluoro-3-pyridyl)oxymethyl)imidazo[1,2-a]pyrimidine], the EC50 lay in the range of 100 to 500 nM. As for `Fc1ccc(-c2cnc3nc(COc4ccnc(F)c4)cn3c2)cc1` [Example 164, 6-(4-fluorophenyl)-2-(2-fluoropyridin-4-yloxymethyl)imidazo[1,2-a]pyrimidine], the figure is 100 to 500 nM. With `COc1cc(C#N)ccc1-c1cnc2nc(COc3ccccn3)cn2c1` [Example 136, 3-methoxy-4-[2-(2-pyridyloxymethyl)imidazo[1,2-a]pyrimidin-6-yl]benzonitrile], the 50% effective concentration (EC50) fell in the range of 500 to 1000 nM. For `COc1cc(-c2cnc3nc(COc4ccccc4)cn3c2)c(F)cc1F` [Example 28, 6-(2,4-difluoro-5-methoxyphenyl)-2-phenoxymethylimidazo[1,2-a]pyrimidine], the EC50 was 500 to 1000 nM. As for `OCc1cc(F)ccc1-c1cnc2nc(COc3cccc(F)c3)cn2c1` [Example 96, [5-fluoro-2-[2-[(3-fluorophenoxy)methyl]imidazo[1,2-a]pyrimidin-6-yl]phenyl]methanol], the EC50 is 100 to 500 nM. For the compound `Fc1ccnc(OCc2cn3cc(-c4ccc(F)cc4F)cnc3n2)c1` [Example 120, 6-(2,4-difluorophenyl)-2-[(4-fluoro-2-pyridyl)oxymethyl)imidazo[1,2-a]pyrimidine], the EC50 fell in the range of 100 to 500 nM. As for `COc1c(F)cccc1-c1cnc2nc(COc3ccccn3)cn2c1` [Example 112, 6-(3-fluoro-2-methoxy-phenyl)-2-(2-pyridyloxymethyl)imidazo[1,2-a]pyrimidine], the figure is 100 to 500 nM. As for `Fc1ccc(-c2cnc3nc(COc4ccc(F)nc4)cn3c2)c(F)c1` [Example 157, 6-(2,4-difluorophenyl)-2-(6-fluoropyridin-3-yloxymethyl)imidazo[1,2-a]pyrimidine], the EC50 is 500 to 1000 nM.

As a reminder, the EC50 is the concentration that produces a half-maximal response.

These data come from US9745310B2 (SK BIOPHARMACEUTICALS CO., LTD., priority 2015, dated 2017).
